From paper PMC11285948, “The effects of CYP2B6 inactivators on the metabolism of ciprofol” (PLOS ONE, 2024)
Several values for one entry are separate records, joined by “and”; a condition that tells them apart may be missing. Equal entries are not always repeated.

Legend:
ciprofol metabolism = system: ciprofol metabolism; set-up: method as in PMID 37309663; settings: clinical trials NCT03758469, NCT04145583, NCT05181007; cited from earlier work
[1] = system: ciprofol metabolism in rat liver microsomes (RLMs); experiment: Effects of psoralen and clopidogrel on ciprofol metabolism in RLM incubation system (substrate elimination, HPLC-MS/MS); assay type: in vitro ADME; settings: for IC50: 10 min preincubation, n = 3; for Relative residual activity (ciprofol metabolism): samples 1-3 and Mean; for degree of inhibitory effect on ciprofol metabolism: grading after ref 23
Method: (§1) The volume of the incubation system was 200 μL and included 2 μL of substrate (ciprofol), 8 μL of rat liver microsomes (RLMs) or 6 μL of human liver microsomes (HLMs), 12 μL of NADPH generation system of solution (solution A 10 μL, solution B 2 μL), and the remaining volume was PBS. The incubation was performed in a water bath at a constant temperature of 37°C, and each sample was incubated three times in parallel.
(§2) The incubation system was removed from the water bath, and the reaction was terminated immediately by adding 800 μL of reaction termination solution (acetonitrile solution containing 5 μg·mL^-1 D6-ciprofol at 4°C). The mixture was vortexed for 2 min and centrifuged for 15 min, after which the supernatant was transferred to an autosampler vial for HPLC-MS/MS detection.
(§3) The incubation system was prepared according to the optimal incubation conditions, and different concentrations of psoralen or clopidogrel solution were added to the blank incubation system at concentrations of 0, 5, 12.5, 25, 50, 75, 100, 150, and 200 μmol·L^-1 and 0, 0.2, 0.5, 1, 2, 5, 10, 25, and 50 μmol·L^-1, respectively. The incubation system was preincubated in a water bath (37°C) for 10 min, and ciprofol was added to the system and subsequently incubated subsequently. The effects of psoralen and clopidogrel on the metabolism of ciprofol were investigated based on ΔC.
(§4) The substrate elimination method was employed in this study, and GraphPad Prism 8.0.2 software was used for statistical processing, including determination of the kinetic parameters of ciprofol metabolism and the IC50 values of psoralen and clopidogrel for ciprofol metabolism. The maximum velocity (Vmax), Michaelis constant (Km) and intrinsic clearance (CLint) were calculated using the […]: V=Vmax×[S]/Km+[S] CLint=Vmax/Km

[2] = system: ciprofol metabolism in human liver microsomes (HLMs); experiment: Effects of psoralen and clopidogrel on ciprofol metabolism in HLM incubation system (substrate elimination, HPLC-MS/MS); assay type: in vitro ADME; settings: for IC50: 10 min preincubation, n = 3; for Relative residual activity (ciprofol metabolism): samples 1-3 and Mean; for degree of inhibitory effect on ciprofol metabolism: grading after ref 23
Method: as §1, §2, §3, §4

SD rats = experiment: Duration of loss of righting reflex (LORR) after ciprofol injection in rats; assay type: in vivo, rat; settings: psoralen 27 mg·kg^-1 or clopidogrel 7.5 mg·kg^-1 gavage daily 7 d, then ciprofol 2.4 mg·kg^-1 i.v.
Method: Twenty-four SD rats were randomly and equally divided into three groups: the control group, psoralen group and clopidogrel group. The administration scheme was as follows: the control group received 0.5% carboxy methyl cellulose by gavage (1 mL·200 g^-1), the psoralen group received 27 mg·kg^-1 psoralen by gavage, and the clopidogrel group was gavaged with 7.5 mg·kg^-1 clopidogrel. […] All rats were treated once daily for seven days. Each rat was injected with 2.4 mg·kg^-1 ciprofol via the tail vein 12 h after the end of dosing on Day 7. Rats that received ciprofol injection were placed on a flat and soft insulation pad. Timekeeping began when the rats were in the supine position and lost the righting reflex and ended when the rats could turn to the prone position successfully. The duration of loss of righting reflex (LORR) in each rat was measured. During this period, approximately 300 μL of blood was collected from the inner canthus at 2, 4, 8, 12, 16, 20, 30, 45, and 60 min after ciprofol administration, and the plasma was separated. The plasma was processed and measured as described in Section 2.4.3, and DAS 2.0 software and a noncompartmental model were used to analyse the pharmacokinetic parameters.
IBM SPSS Statistics 27 software was used to analyse the main pharmacokinetic parameters, and GraphPad Prism 8.0.2 software was used for graphical visualization. […]

[3] = system: recombinant human CYP2B6 enzyme; settings: cited from earlier work; for inhibition of recombinant human CYP2B6 enzyme activity: psoralen: ref Ji et al. 13, clopidogrel (bupropion as substrate): ref 31, 32

Cc1cccc(Nc2ccccc2C(=O)O)c1C [mefenamic acid]
clinical effect on ciprofol metabolism (ciprofol metabolism): no clinical effect

O=c1ccc2cc3ccoc3cc2o1 [psoralen]
IC50 [1]: 63.3 µM | Relative residual activity (ciprofol metabolism) ([1]; Cpsoralen 5 μM): 93.09% and 97.46% and 90.99% | Relative residual activity (ciprofol metabolism) ([1]; Cpsoralen 5 μM, mean): 93.85% | Relative residual activity (ciprofol metabolism) ([1]; Cpsoralen 12.5 μM): 88.25% and 94.23% and 84.23% | Relative residual activity (ciprofol metabolism) ([1]; Cpsoralen 12.5 μM, mean): 88.90% | Relative residual activity (ciprofol metabolism) ([1]; Cpsoralen 25 μM): 79.18% and 75.1% and 87.55% | Relative residual activity (ciprofol metabolism) ([1]; Cpsoralen 25 μM, mean): 80.61% | Relative residual activity (ciprofol metabolism) ([1]; Cpsoralen 50 μM): 57.26% and 67.87% and 65.65% | Relative residual activity (ciprofol metabolism) ([1]; Cpsoralen 50 μM, mean): 63.59% | Relative residual activity (ciprofol metabolism) ([1]; Cpsoralen 75 μM): 32.92% and 44.27% and 51.97% | Relative residual activity (ciprofol metabolism) ([1]; Cpsoralen 75 μM, mean): 43.05% | Relative residual activity (ciprofol metabolism) ([1]; Cpsoralen 100 μM): 29.87% and 38.51% and 22.31% | Relative residual activity (ciprofol metabolism) ([1]; Cpsoralen 100 μM, mean): 30.23% | Relative residual activity (ciprofol metabolism) ([1]; Cpsoralen 150 μM): 15.05% and 20.24% and 25.14% | Relative residual activity (ciprofol metabolism) ([1]; Cpsoralen 150 μM, mean): 20.14% | Relative residual activity (ciprofol metabolism) ([1]; Cpsoralen 200 μM): 14.67% and 20.19% and 12.3% | Relative residual activity (ciprofol metabolism) ([1]; Cpsoralen 200 μM, mean): 15.72% | degree of inhibitory effect on ciprofol metabolism [1]: mild inhibitory effects | IC50 [2]: 34 µM | Relative residual activity (ciprofol metabolism) ([2]; Cpsoralen 5 μM): 85.57% and 90.39% and 83.88% | Relative residual activity (ciprofol metabolism) ([2]; Cpsoralen 5 μM, mean): 86.61% | Relative residual activity (ciprofol metabolism) ([2]; Cpsoralen 12.5 μM): 76.45% and 75.70% and 82.09% | Relative residual activity (ciprofol metabolism) ([2]; Cpsoralen 12.5 μM, mean): 78.08% | Relative residual activity (ciprofol metabolism) ([2]; Cpsoralen 25 μM): 55.36% and 59.73% and 68.81% | Relative residual activity (ciprofol metabolism) ([2]; Cpsoralen 25 μM, mean): 61.30% | Relative residual activity (ciprofol metabolism) ([2]; Cpsoralen 50 μM): 40.24% and 31.49% and 40.07% | Relative residual activity (ciprofol metabolism) ([2]; Cpsoralen 50 μM, mean): 37.27% | Relative residual activity (ciprofol metabolism) ([2]; Cpsoralen 75 μM): 32.40% and 26.96% and 29.47% | Relative residual activity (ciprofol metabolism) ([2]; Cpsoralen 75 μM, mean): 29.61% | Relative residual activity (ciprofol metabolism) ([2]; Cpsoralen 100 μM): 17.05% and 23.45% and 21.45% | Relative residual activity (ciprofol metabolism) ([2]; Cpsoralen 100 μM, mean): 20.65% | Relative residual activity (ciprofol metabolism) ([2]; Cpsoralen 200 μM): 6.19% and 12.50% and 10.40% | Relative residual activity (ciprofol metabolism) ([2]; Cpsoralen 200 μM, mean): 9.70% | degree of inhibitory effect on ciprofol metabolism [2]: mild inhibitory effects | prolongation of duration of LORR compared with control group (SD rats): 16.1% | inhibition of recombinant human CYP2B6 enzyme activity [3]: moderately inhibit

CO[C@H]1/C=C/O[C@@]2(C)Oc3c(C)c(O)c4c(O)c(c(/C=N/N5CCN(C)CC5)c(O)c4c3C2=O)NC(=O)/C(C)=C\C=C\[C@H](C)[C@H](O)[C@@H](C)[C@@H](O)[C@@H](C)[C@H](OC(C)=O)[C@@H]1C [rifampicin]
clinical effect on ciprofol metabolism (ciprofol metabolism): no clinical effect

COC(=O)[C@H](c1ccccc1Cl)N1CCc2sccc2C1 [clopidogrel]
IC50 [1]: 6.38 µM | Relative residual activity (ciprofol metabolism) ([1]; Cclopidogrel 0.20 μM): 96.32% and 84.60% and 95.79% | Relative residual activity (ciprofol metabolism) ([1]; Cclopidogrel 0.50 μM): 90.44% and 83.76% and 96.63% | Relative residual activity (ciprofol metabolism) ([1]; Cclopidogrel 1.00 μM): 88.66% and 86.92% and 76.64% | Relative residual activity (ciprofol metabolism) ([1]; Cclopidogrel 2.00 μM): 75.16% and 58.26% and 69.88% | Relative residual activity (ciprofol metabolism) ([1]; Cclopidogrel 5.00 μM): 50.35% and 43.15% and 60.40% | Relative residual activity (ciprofol metabolism) ([1]; Cclopidogrel 10.00 μM): 42.20% and 50.96% and 39.90% | Relative residual activity (ciprofol metabolism) ([1]; Cclopidogrel 25.00 μM): 32.17% and 28.83% and 23.03% | Relative residual activity (ciprofol metabolism) ([1]; Cclopidogrel 50.00 μM): 11.08% and 18.95% and 13.85% | degree of inhibitory effect on ciprofol metabolism [1]: moderate inhibitory effects | IC50 [2]: 2.56 µM | Relative residual activity (ciprofol metabolism) ([2]; Cclopidogrel 0.20 μM): 88.53% and 84.40% and 91.91% | Relative residual activity (ciprofol metabolism) ([2]; Cclopidogrel 0.50 μM): 70.42% and 76.69% and 80.24% | Relative residual activity (ciprofol metabolism) ([2]; Cclopidogrel 1.00 μM): 66.15% and 57.16% and 70.67% | Relative residual activity (ciprofol metabolism) ([2]; Cclopidogrel 2.00 μM): 58.07% and 44.78% and 46.16% | Relative residual activity (ciprofol metabolism) ([2]; Cclopidogrel 5.00 μM): 36.69% and 31.97% and 37.99% | Relative residual activity (ciprofol metabolism) ([2]; Cclopidogrel 10.00 μM): 32.45% and 25.93% and 29.26% | Relative residual activity (ciprofol metabolism) ([2]; Cclopidogrel 25.00 μM): 23.23% and 27.69% and 23.00% | Relative residual activity (ciprofol metabolism) ([2]; Cclopidogrel 50.00 μM): 19.78% and 11.54% and 13.21% | degree of inhibitory effect on ciprofol metabolism [2]: moderate inhibitory effects | prolongation of duration of LORR compared with control group (SD rats): 23.0% | inhibition of recombinant human CYP2B6 enzyme activity [3]: strongly inhibits | inactivation potency relative to its thiolactone metabolite ([3]; recombinant human CYP2B6, bupropion as substrate): 11 times
